According to patent US11072588B2, “Barbituric acid derivatives comprising cationic and lipophilic groups” (UNIVERSITETET I TROMSØ—NORGES ARKTISKE UNIVERSITET, priority 2017, dated 2021):
Values after ≈ are worked out from the molar mass of the structure shown. Read-outs that look alike come from different tables or passages of the source.

Key:
[1] = Determination of haemolytic activity; type: cell-based; details: human red blood cells (washed, from heparinized fresh blood); human RBCs, 1 h, 37° C.; read-out: RBC: haemolytic activity against human RBCs (EC50)
Procedure, shortened: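 Heparinized fresh blood was washed in PBS, and RBCs were used at 1% v/v final with test compounds at 500–4 μM (DMSO ≤1%) for 1 h at 37 °C. Haemoglobin release was read at 545 nm and expressed relative to 1% Triton X-100 after PBS background correction. EC50 values are means of three independent experiments.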

S. aureus IHT 99040 = experiment: MIC, multi-resistant clinical isolate; type: cell-based, Staphylococcus aureus; details: for selectivity index (EC50/MIC): RBC EC50 / MIC; for MIC: Staphylococcus aureus, IHT99040, read-out: Antimicrobial activity (MIC)
E. coli 50579417 = experiment: MIC, multi-resistant clinical isolate; type: cell-based, Escherichia coli; details: for MIC: Escherichia coli, read-out: Antimicrobial activity (MIC); for selectivity index (EC50/MIC): RBC EC50 / MIC
E. coli 50639799 = experiment: MIC, multi-resistant clinical isolate; type: cell-based, Escherichia coli; details: for MIC: Escherichia coli, read-out: Antimicrobial activity (MIC); for selectivity index (EC50/MIC): RBC EC50 / MIC
E. coli 50676002 = experiment: MIC, multi-resistant clinical isolate; type: cell-based, Escherichia coli; details: for selectivity index (EC50/MIC): RBC EC50 / MIC
E. coli 50739822 = experiment: MIC, multi-resistant clinical isolate; type: cell-based, Escherichia coli; details: for MIC: Escherichia coli, read-out: Antimicrobial activity (MIC); for selectivity index (EC50/MIC): RBC EC50 / MIC
E. coli 50857972 = experiment: MIC, multi-resistant clinical isolate; type: cell-based, Escherichia coli; details: for MIC: Escherichia coli, read-out: Antimicrobial activity (MIC); for selectivity index (EC50/MIC): RBC EC50 / MIC
P. aeruginosa 50692172 = experiment: MIC, multi-resistant clinical isolate; type: cell-based, Pseudomonas aeruginosa; details: for MIC: Pseudomonas aeruginosa, read-out: Antimicrobial activity (MIC)
P. aeruginosa 50692520 = experiment: MIC, multi-resistant clinical isolate; type: cell-based, Pseudomonas aeruginosa; details: for MIC: Pseudomonas aeruginosa, read-out: Antimicrobial activity (MIC)
P. aeruginosa K34-73 = experiment: MIC, multi-resistant clinical isolate; type: cell-based, Pseudomonas aeruginosa; details: for MIC: Pseudomonas aeruginosa
P. aeruginosa K34-7 = experiment: MIC, multi-resistant clinical isolate; type: cell-based, Pseudomonas aeruginosa; details: for MIC: Pseudomonas aeruginosa, K347, read-out: Antimicrobial activity (MIC)
P. aeruginosa K44-24 = experiment: MIC, multi-resistant clinical isolate; type: cell-based, Pseudomonas aeruginosa; details: for MIC: Pseudomonas aeruginosa, K4424, read-out: Antimicrobial activity (MIC)
A. baumanii K12-21 = experiment: MIC, multi-resistant clinical isolate; type: cell-based, Acinetobacter baumannii; details: for MIC: Acinetobacter baumannii, K1221, read-out: Antimicrobial activity (MIC); for selectivity index (EC50/MIC): RBC EC50 / MIC
A. baumanii K44-35 = experiment: MIC, multi-resistant clinical isolate; type: cell-based, Acinetobacter baumannii; details: for MIC: Acinetobacter baumannii, K4435, read-out: Antimicrobial activity (MIC); for selectivity index (EC50/MIC): RBC EC50 / MIC
A. baumanii K47-42 = experiment: MIC, multi-resistant clinical isolate; type: cell-based, Acinetobacter baumannii; details: for MIC: Acinetobacter baumannii, K4742, read-out: Antimicrobial activity (MIC); for selectivity index (EC50/MIC): RBC EC50 / MIC
A. baumanii K55-13 = experiment: MIC, multi-resistant clinical isolate; type: cell-based, Acinetobacter baumannii; details: for MIC: Acinetobacter baumannii, K5513, read-out: Antimicrobial activity (MIC); for selectivity index (EC50/MIC): RBC EC50 / MIC
A. baumanii K63-58 = experiment: MIC, multi-resistant clinical isolate; type: cell-based, Acinetobacter baumannii; details: A. baumanii K63-58, resistant to colistin; for MIC: Acinetobacter baumannii, K6358, 24 h, read-out: Antimicrobial activity (MIC); for selectivity index (EC50/MIC): RBC EC50 / MIC

Structure (SMILES) | EC50 at 1 h [1] [µg/mL] | selectivity index (EC50/MIC) (S. aureus IHT 99040) | MIC (S. aureus IHT 99040) [µg/mL] | MIC (E. coli 50579417) [µg/mL] | selectivity index (EC50/MIC) (E. coli 50579417) | MIC (E. coli 50639799) [µg/mL] | selectivity index (EC50/MIC) (E. coli 50639799) | selectivity index (EC50/MIC) (E. coli 50676002; E. coli 50676002) | MIC (E. coli 50739822) [µg/mL] | selectivity index (EC50/MIC) (E. coli 50739822) | MIC (E. coli 50857972) [µg/mL] | selectivity index (EC50/MIC) (E. coli 50857972) | MIC (P. aeruginosa 50692172) [µg/mL] | MIC (P. aeruginosa 50692520) [µg/mL] | MIC (P. aeruginosa K34-7) [µg/mL] | MIC (P. aeruginosa K44-24) [µg/mL] | MIC (A. baumanii K12-21) [µg/mL] | selectivity index (EC50/MIC) (A. baumanii K12-21) | MIC (A. baumanii K44-35) [µg/mL] | selectivity index (EC50/MIC) (A. baumanii K44-35) | also measured
CC(C)(C)c1ccc(CC2(Cc3ccc(C(C)(C)C)cc3)C(=O)N(CCCCN)C(=O)N(CCCCN)C2=O)cc1 [Compound 7(i), 1,3-bis(4-aminobutyl)-5,5-bis(4-tertbutylbenzyl) pyrimidin-2,4,6(1H,3H,5H)-trione] | 143 (≈ 254 µM) | (18) | 8 (≈ 14.2 µM) | 8 (≈ 14.2 µM) | (18) | 8 (≈ 14.2 µM) | (18) | (36) | 8 (≈ 14.2 µM) | (18) | 4 (≈ 7.11 µM) | (36) | > 32 | > 32 | > 32 | > 32 | 16 (≈ 28.4 µM) | (9) | 32 (≈ 56.9 µM) | (4) | MIC (E. coli 50676002; Escherichia coli, 50676002, read-out: Antimicrobial activity (MIC)): 4 µg/mL (≈ 7.11 µM); MIC (P. aeruginosa K34-73; K3473, read-out: Antimicrobial activity (MIC)): > 32 µg/mL; MIC (A. baumanii K47-42): 16 µg/mL (≈ 28.4 µM); selectivity index (EC50/MIC) (A. baumanii K47-42): (9); MIC (A. baumanii K55-13): 16 µg/mL (≈ 28.4 µM); selectivity index (EC50/MIC) (A. baumanii K55-13): (9); MIC (A. baumanii K63-58): 16 µg/mL (≈ 28.4 µM); selectivity index (EC50/MIC) (A. baumanii K63-58): (9)
CC(C)(C)c1ccc(CC2(Cc3ccc(C(C)(C)C)cc3)C(=O)N(CCCCNC(=N)N)C(=O)N(CCCCNC(=N)N)C2=O)cc1 [Compound 8(i), 1,1′-(4,4′-(5,5-bis(4-tert-butylbenzyl)-2,4,6-trioxodihydropyrimidine-1,3(2H,4H)-diyl)bis(butane-4,1-diyl))diguanidine] | 77 (≈ 119 µM) | (39) | 2 (≈ 3.09 µM) | 4 (≈ 6.18 µM) | (19) | 4 (≈ 6.18 µM) | (19) | (19) | 4 (≈ 6.18 µM) | (19) | 4 (≈ 6.18 µM) | (19) | 16 (≈ 24.7 µM) | 16 (≈ 24.7 µM) | 16 (≈ 24.7 µM) | 16 (≈ 24.7 µM) | 4 (≈ 6.18 µM) | (19) | 8 (≈ 12.4 µM) | (10) | MIC (E. coli 50676002; Escherichia coli, E. coli 50676002, read-out: Antimicrobial activity (MIC)): 4 µg/mL (≈ 6.18 µM); selectivity index (EC50/MIC) (P. aeruginosa 50692172; RBC EC50 / MIC): (5); selectivity index (EC50/MIC) (P. aeruginosa 50692520; RBC EC50 / MIC): (5); MIC (P. aeruginosa K34-73; K3473, P. aeruginosa K34-73, read-out: Antimicrobial activity (MIC)): 8 µg/mL (≈ 12.4 µM); selectivity index (EC50/MIC) (P. aeruginosa K34-73; RBC EC50 / MIC, P. aeruginosa K34-73): (10); selectivity index (EC50/MIC) (P. aeruginosa K34-7; RBC EC50 / MIC, P. aeruginosa K34-7): (5); selectivity index (EC50/MIC) (P. aeruginosa K44-24; RBC EC50 / MIC): (5); MIC (A. baumanii K47-42): 8 µg/mL (≈ 12.4 µM); selectivity index (EC50/MIC) (A. baumanii K47-42): (10); MIC (A. baumanii K55-13): 8 µg/mL (≈ 12.4 µM); selectivity index (EC50/MIC) (A. baumanii K55-13): (10); MIC (A. baumanii K63-58): 4 µg/mL (≈ 6.18 µM); selectivity index (EC50/MIC) (A. baumanii K63-58): (19)
